target: S. pneumoniae Topoisomerase IV ATPase (ParE) (Streptococcus pneumoniae serotype 4, UniProt Q59961); assay: S. pneumoniae Topoisomerase IV ATPase inhibition; type: biochemical; settings: values marked * are an average of two or more data points, read-out: % Inh (13 μM) of S. pneumoniae Topoisomerase IV ATPase
Summary of the method: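 ParE ATPase (1.25 nM) run with 160 μM ATP and 5 μg/ml sheared salmon sperm DNA in Tris pH 8.0, Mg2+, glycerol, DTT, Brij-35. Phosphate released read by malachite green/molybdate absorbance at 650 nm. IC50 from 10 compound concentrations; DMSO (2%) as 0% and EDTA (20 μM) as 100% inhibition.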

Sequence of S. pneumoniae Topoisomerase IV ATPase (ParE) (Q59961 whole entry): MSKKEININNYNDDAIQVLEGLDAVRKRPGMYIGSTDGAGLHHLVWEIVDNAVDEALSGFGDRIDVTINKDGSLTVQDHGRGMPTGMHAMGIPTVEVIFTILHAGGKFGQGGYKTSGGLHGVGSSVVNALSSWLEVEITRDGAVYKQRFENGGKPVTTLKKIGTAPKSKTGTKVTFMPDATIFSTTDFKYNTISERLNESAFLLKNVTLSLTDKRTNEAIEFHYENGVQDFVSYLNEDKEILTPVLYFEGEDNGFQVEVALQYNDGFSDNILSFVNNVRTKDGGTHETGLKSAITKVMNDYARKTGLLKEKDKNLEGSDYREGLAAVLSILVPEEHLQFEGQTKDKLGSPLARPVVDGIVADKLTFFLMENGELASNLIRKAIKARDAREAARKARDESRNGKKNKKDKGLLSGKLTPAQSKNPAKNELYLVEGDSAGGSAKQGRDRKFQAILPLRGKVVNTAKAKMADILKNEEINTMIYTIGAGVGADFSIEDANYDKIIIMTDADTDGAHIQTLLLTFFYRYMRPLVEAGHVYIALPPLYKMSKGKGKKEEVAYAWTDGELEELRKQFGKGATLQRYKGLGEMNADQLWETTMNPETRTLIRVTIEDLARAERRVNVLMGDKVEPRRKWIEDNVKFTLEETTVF

SMILES | inhibition at 13 µM
CCOC(=O)c1ccc(-c2cnc(Nc3ccc(F)c(Cl)c3)nc2NCCCN(C)C)cc1 [Example 6, Ethyl 4-(2-(3-chloro-4-fluorophenylamino)-4-(3-(dimethylamino)propylamino)pyrimidin-5-yl)benzoate] | 102%
Cc1cc(C(F)(F)F)nn1-c1nc(Nc2cccc(C#N)c2)ncc1-c1cccc(/C=C/C(=O)O)c1 [Example 693, (2E)-3-(3-{2-[(3-cyanophenyl)amino]-4-[5-methyl-3-(trifluoromethyl)-1H-pyrazol-1-yl]pyrimidin-5-yl}phenyl)prop-2-enoic acid] | 97%
COCCn1cc(C(=O)O)c(=O)c2cc(-c3cnc(Nc4ccc(F)c(Cl)c4)nc3N3CCOCC3)ccc21 [Example 303, 6-(2-(3-chloro-4-fluorophenylamino)-4-morpholinopyrimidin-5-yl)-1-(2-methoxyethyl)-4-oxo-1,4-dihydroquinone-3-carboxylic acid] | 82%
CONC(=O)c1cncc(-c2cnc(Nc3ccc(F)c(Cl)c3)nc2NCCc2c[nH]cn2)c1 [Example 475, 5-(2-[(3-chloro-4-fluorophenyl)amino]-4-{[2-(1H-imidazol-4-yl)ethyl]amino}pyrimidin-5-yl)-N-methoxypyridine-3-carboxamide] | 93%
CCOC(=O)/C=C/c1cccc(-c2cnc(Nc3ccc(F)c(Cl)c3)nc2NCc2cncn2C)c1 [Example 172, (E)-ethyl 3-(3-(2-(3-chloro-4-fluorophenylamino)-4-((1-methyl-1H-imidazol-5-yl)methylamino)pyrimidin-5-yl)phenyl)acrylate] | -32.8%
COc1ncc(-c2cnc(Nc3cccc(C(C)=O)c3)nc2-n2ccc(C(F)(F)F)n2)cc1C(=O)O [Example 720, 5-{2-[(3-acetylphenyl)amino]-4-[3-(trifluoromethyl)-1H-pyrazol-1-yl]pyrimidin-5-yl}-2-methoxypyridine-3-carboxylic acid] | 100%
COc1cc(Cl)cc(Nc2ncc(-c3cnc(OC)c(C(=O)O)c3)c(-n3ccc(C(F)(F)F)n3)n2)c1 [Example 758, 5-{2-[(3-chloro-5-methoxyphenyl)amino]-4-[3-(trifluoromethyl)-1H-pyrazol-1-yl]pyrimidin-5-yl}-2-methoxypyridine-3-carboxylic acid] | 98%
COc1ccccc1-c1cnc(Nc2ccc(F)c(Cl)c2)nc1NCCCN(C)C [Example 28, N^2-(3-chloro-4-fluorophenyl)-N^4-[3-(dimethylamino)propyl]-5-(2-methoxyphenyl)-pyrimidin-2,4-diamine] | 62.6%
N#Cc1cc(Cl)cc(Nc2ncc(-c3cncc(C(=O)O)c3)c(N3CCOCC3)n2)c1 [Example 392, 5-[2-(3-Chloro-5-cyano-phenylamino)-4-morpholin-4-yl-pyrimidin-5-yl]-nicotinic acid] | 74%
Cc1cc(C)n(-c2nc(Nc3ccc(F)c(Cl)c3)ncc2-c2cccc(/C=C/C(=O)O)c2)n1 [Example 321, (2E)-3-(3-{2-[(3-chloro-4-fluorophenyl)amino]-4-(3,5-dimethyl-1H-pyrazol-1-yl)pyrimidin-5-yl}phenyl)prop-2-enoic acid] | 83.7%
COCCCNc1nc(Nc2ccc(F)c(Cl)c2)ncc1-c1ccc2[nH]c(C(=O)O)cc2c1 [Example 1062, 5-(2-(3-chloro-4-fluorophenylamino)-4-(3-methoxypropylamino)pyrimidin-5-yl)-1H-indole-2-carboxylic acid] | 91%
O=C(O)c1cc(-c2cnc(Nc3ccc(F)c(Cl)c3)nc2-n2ccc(C(F)(F)F)n2)ccn1 [Example 1068, 4-(2-(3-Chloro-4-fluorophenylamino)-4-(3-(trifluoromethyl)-1H-pyrazol-1-yl)pyrimidin-5-yl)picolinic acid] | 100%
CCOC(=O)c1cncc(-c2cnc(Nc3ccc(F)c(Cl)c3)nc2NC(COC)COC)c1 [Example 149, ethyl 5-(2-(3-chloro-4-fluorphenylamino)-4-(1,3-dimethoxypropan-2-ylamino)pyrimidin-5-yl)nicotinate] | 82.2%
COc1ncc(-c2cnc(Nc3ccc(F)c(Cl)c3)nc2N2CCOCC2)cn1 [Example 77, N-(3-chloro-4-fluorophenyl)-2′-methoxy-4-morpholin-5,5′-bipyrimidin-2-amine] | 83%
O=C(O)c1cccc(-c2cnc(Nc3ccc(F)c(Cl)c3)nc2N2CCOCC2)c1 [Example 487, 3-{2-[(3-chloro-4-fluorophenyl)amino]-4-(morpholin-4-yl)pyrimidin-5-yl}benzoic acid] | 84%
CCOC(=O)c1cncc(-c2cnc(Nc3ccc(F)c(Cl)c3)nc2NCCCN2CCOCC2)c1 [Example 106, 5-[2-(3-Chloro-4-fluoro-phenylamino)-4-(3-morpholin-4-yl-propylamino)-pyrimidin-5-yl]-nicotinic acid ethyl ester] | 40.8%

SMILES | inhibition at 13 µM
CCOC(=O)c1cncc(-c2cnc(Nc3ccc(F)c(Cl)c3)nc2N2CCC2)c1 [Example 126, ethyl 5-[4-(azetidin-1-yl)-2-[(3-chloro-4-fluorophenyl)amino]pyrimidin-5-yl]pyridine-3-carboxylate] | 35.7%
CN(C)CCCNc1nc(Nc2ccc(F)c(Cl)c2)ncc1-c1ccc(C(=O)O)s1 [Example 17, 5-{2-(3-chloro-4-fluorophenylamino)-4-[3-(dimethylamino)propylamino]pyrimidin-5-yl}thiophene-2-carboxylic acid] | 54.8%
CC1CCCN1c1nc(Nc2ccc(F)c(Cl)c2)ncc1-c1cncc(C(=O)O)c1 (centres unmarked) [Example 251, 5-[2-[(3-chloro-4-fluorophenyl)amino]-4-(2-methylpyrrolidin-1-yl)pyrimidin-5-yl]pyridine-3-carboxylic acid] | 79.9%
CONC(=O)c1cncc(-c2cnc(Nc3ccc(F)c(Cl)c3)nc2-n2cc(-c3ccccn3)cn2)c1 [Example 550, 5-{2-[(3-chloro-4-fluorophenyl)amino]-4-[4-(pyridin-2-yl)-1H-pyrazol-1-yl]pyrimidin-5-yl}-N-methoxypyridine-3-carboxamide] | 100%
O=C(O)c1cncc(-c2cnc(Nc3ccc(F)c(Cl)c3)nc2-n2cnc(C(F)(F)F)c2)c1 [Example 328, 5-{2-[(3-chloro-4-fluorophenyl)amino]-4-[4-(trifluoromethyl)-1H-imidazol-1-yl]pyrimidin-5-yl}pyridine-3-carboxylic acid] | 70.8%
OCC1CCCN(c2nc(Nc3ccc(F)c(Cl)c3)ncc2-c2cncnc2)C1 (centres unmarked) [Example 61, [1-[2-[(3-chloro-4-fluorophenyl)amino]-5-pyrimidin-5-ylpyrimidin-4-yl]piperidin-3-yl]methanol] | 74.8%
COc1ncc(-c2cnc(Nc3ccc(F)c(Cl)c3)nc2NCCc2cccnc2)cn1 [Example 460, N^2-(3-chloro-4-fluorophenyl)-2′-methoxy-N^4-[2-(pyridin-3-yl)ethyl]-5,5′-bipyrimidine-2,4-diamine] | 100%
O=C(O)/C=C/c1cccc(-c2cnc(Nc3ccc(F)cc3)nc2N2CCOCC2)c1 [Example 447] | 50%
COc1cc(Nc2ncc(-c3cnc(OC)c(C(=O)NS(=O)(=O)CS(C)(=O)=O)c3)c(-n3nc(C(F)(F)F)cc3C)n2)cc(OC)c1 [Example 838, 5-{2-[(3,5-dimethoxyphenyl)amino]-4-[5-methyl-3-(trifluoromethyl)-1H-pyrazol-1-yl]pyrimidin-5-yl}-2-methoxy-N-{[(methylsulfonyl)methyl]sulfonyl}pyridine-3-carboxamide] | 99%
CC(C)N1CCN(CCn2cc(-c3cnc(Nc4ccc(F)c(Cl)c4)nc3-n3ccc(C(F)(F)F)n3)cc(C(=O)O)c2=O)CC1 [Example 1089, 5-(2-(3-chloro-4-fluorophenylamino)-4-(3-(trifluoromethyl)-1H-pyrazol-1-yl)pyrimidin-5-yl)-1-(2-(4-isopropylpiperazin-1-yl)ethyl)-2-oxo-1,2-dihydropyridine-3-carboxylic acid] | 100%
Fc1ccc(Nc2ncc(-c3cncnc3)c(-n3ccc(C(F)(F)F)n3)n2)cc1Cl [Example 71, N-(3-chloro-4-fluorophenyl)-4-[3-(trifluoromethyl)-1H-pyrazol-1-yl]-5,5′-bipyrimidin-2-amine] | 66.7%
CN(C)CCCNc1nc(Nc2ccc(F)c(Cl)c2)ncc1-c1cccc(C(=O)NCc2ccccc2)c1 [Example 362, N-benzyl-3-(2-(3-chloro-4-fluorophenylamino)-4-(3-(dimethylamino)propylamino)pyrimidin-5-yl) benzamide] | 107%
CN(C)CCCNc1nc(Nc2ccc(F)c(Cl)c2)ncc1-c1cncc(C(=O)O)c1 [Example 214, 5-(2-(3-chloro-4-fluorophenylamino)-4-(3-(dimethylamino)propylamino)pyrimidin-5-yl)nicotinic acid] | 101%
O=C(O)c1cncc(-c2cnc(Nc3ccc(F)c(Cl)c3)nc2NCCCN2CCS(=O)(=O)CC2)c1 [Example 232, 5-{2-(3-Chloro-4-fluoro-phenylamino)-4-[3-(1,1-dioxo-1λ^6-thiomorpholin-4-yl)-propylamino]-pyrimidin-5-yl}-nicotinic acid] | 81%
CONC(=O)c1cncc(-c2cnc(Nc3cc(OC)cc(OC)c3)nc2-n2ccc(C(F)(F)F)n2)c1 [Example 680, 5-{2-[(3,5-dimethoxyphenyl)amino]-4-[3-(trifluoromethyl)-1H-pyrazol-1-yl]pyrimidin-5-yl}-N-methoxypyridine-3-carboxamide] | 100%
O=C(O)CS(=O)(=O)c1cccc(-c2cnc(Nc3ccc(F)c(Cl)c3)nc2-n2ccc(C(F)(F)F)n2)c1 [Example 1099, 2-(3-(2-(3-chloro-4-fluorophenylamino)-4-(3-(trifluoromethyl)-1H-pyrazol-1-yl)pyrimidin-5yl)phenylsulfonyl)acetic acid] | 100%

— patent US20100137313A1 (ASTRAZENECA AB, priority 2008, published 2010)
